Measurements: US20030073731A1, “Compositions and methods of the use thereof achiral analogues of CC-1065 and the duocarmycins” (priority 2000, published 2003)
Where two headings read alike, the source gives them in different places.

Key:
SK-MEL-28 [1] = test system: SK-MEL-28
786-0 [2] = test system: 786-0
RXF 393 = test: NCI in-vitro cytotoxicity screen, Renal Cancer panel; format: cell-based; settings: Homo sapiens
Description: The compounds of this invention were also tested against the panel of 60 human cancer cell lines at the National Cancer Institute, Bethesda, Md. […] The cytotoxicity studies were conducted using a 48 hour exposure, and measuring the optical density of sulforhodamine B-derived color.

MOLT-4 = test: cells; settings: Homo sapiens
HCT-15 = test: cells; settings: Homo sapiens
U251 = test: cells; settings: Homo sapiens
SK-MEL-2 = test: cells; settings: Homo sapiens
SK-MEL-28 [3] = test: cells; settings: Homo sapiens
SK-OV-3 = test: cells; settings: Homo sapiens
786-0 [4] = test: cells; settings: Homo sapiens
UO-31 = test: cells; settings: Homo sapiens
PC-3 = test: cells; settings: Homo sapiens

Q: Which GI50 (CCRF-CEM) does the source give for “4-(2-Chloroethyl)-3-[5-(5-benzofuran-2-carboxamido)indole-2-carboxamido]phenol [Compound 1]” here?
A: The GI50 was 1260 nM.

Q: And the TGI (CCRF-CEM)?
A: Its TGI is 5.28E-06 Molar.

Q: And the GI50 (A549/ATCC)?
A: Its GI50 is 1980 nM.

Q: What about the TGI (A549/ATCC) of the same molecule?
A: The TGI was 6.58E-06 Molar.

Q: And the GI50 (NCI-H23)?
A: The GI50 was 1670 nM.

Q: And the TGI (NCI-H23)?
A: Its TGI is 3.38E-06 Molar.

Q: And the GI50 (NCI-H332M)?
A: Its GI50 is 2830 nM.

Q: And the TGI (NCI-H332M)?
A: The TGI was 9.60E-06 Molar.

Q: And the GI50 (KM12)?
A: Its GI50 is 18800 nM.

Q: What about the TGI (KM12) of the same molecule?
A: Its TGI is 3.50E-05 Molar.

Q: What about the GI50 (SF-268) of the same molecule?
A: The GI50 was 13400 nM.

Q: What about the TGI (SF-268) of the same molecule?
A: Its TGI is 2.78e-05 Molar.

Q: And the GI50 (SF-539)?
A: The GI50 was 1920 nM.

Q: And the TGI (SF-539)?
A: The TGI was 4.16E-06 Molar.

Q: And the GI50 (SK-MEL-28 [1])?
A: Its GI50 is 2400 nM.

Q: And the TGI (SK-MEL-28 [1])?
A: Its TGI is 6.10E-06 Molar.

Q: And the GI50 (OVCAR-8)?
A: Its GI50 is 1320 nM.

Q: What about the TGI (OVCAR-8) of the same molecule?
A: The TGI was 3.28E-06 Molar.

Q: What about the GI50 (786-0 [2]) of the same molecule?
A: The GI50 was 2620 nM.

Q: And the TGI (786-0 [2])?
A: The TGI was 1.07E-05 Molar.

Q: What about the GI50 (SN12C) of the same molecule?
A: Its GI50 is 3100 nM.

Q: What about the TGI (SN12C) of the same molecule?
A: Its TGI is 9.41E-06 Molar.

Q: What about the GI50 (MCF7) of the same molecule?
A: The GI50 was 1030 nM.

Q: And the TGI (MCF7)?
A: The TGI was 2.27E-06 Molar.

Q: For `COC(=O)c1[nH]c2c(O)cc(NC(=O)c3cc4cc(OC)c(OC)c(OC)c4[nH]3)c(CCCl)c2c1C(=O)OC` [Compound 22, Dimethyl 4-(2-chloroethyl)-7-hydroxy-5-(5,6,7-trimethoxyindole-2-carboxamido)indole-2,3-dicarboxylate], which GI50 (RXF 393; RXF 393) is on record?
A: The GI50 was 74.7 nM.

Q: What about the CC50 (RXF 393; RXF 393, read-out: LC50) of the same molecule?
A: The CC50 was 21500 nM.

Q: And the GI50 (MOLT-4; MOLT-4)?
A: The GI50 was 10.5 nM.

Q: What about the CC50 (MOLT-4; MOLT-4, read-out: LC50) of the same molecule?
A: The CC50 was greater than 50000 nM.

Q: What about the GI50 (HCT-15; HCT-15) of the same molecule?
A: Its GI50 is 259 nM.

Q: And the CC50 (HCT-15; HCT-15, read-out: LC50)?
A: Its CC50 is greater than 50000 nM.

Q: And the GI50 (U251; U-251)?
A: The GI50 was 120 nM.

Q: What about the CC50 (U251; U-251, read-out: LC50) of the same molecule?
A: The CC50 was greater than 50000 nM.

Q: And the GI50 (SK-MEL-2; SK-MEL-2)?
A: The GI50 was 83.9 nM.

Q: And the CC50 (SK-MEL-2; SK-MEL-2, read-out: LC50)?
A: Its CC50 is 339 nM.

Q: What about the GI50 (SK-MEL-28 [3]; SK-MEL-28) of the same molecule?
A: Its GI50 is 172 nM.

Q: And the CC50 (SK-MEL-28 [3]; SK-MEL-28, read-out: LC50)?
A: The CC50 was greater than 50000 nM.

Q: And the GI50 (SK-OV-3; SK-OV-3)?
A: Its GI50 is 269 nM.

Q: And the CC50 (SK-OV-3; SK-OV-3, read-out: LC50)?
A: Its CC50 is 44600 nM.

Q: What about the GI50 (786-0 [4]; 786-0) of the same molecule?
A: The GI50 was 123 nM.

Q: And the CC50 (786-0 [4]; 786-0, read-out: LC50)?
A: The CC50 was greater than 50000 nM.

Q: What about the GI50 (UO-31; UO-31) of the same molecule?
A: Its GI50 is 98.8 nM.

Q: And the CC50 (UO-31; UO-31, read-out: LC50)?
A: Its CC50 is greater than 50000 nM.

Q: What about the GI50 (PC-3; PC-3) of the same molecule?
A: Its GI50 is 61.7 nM.

Q: What about the CC50 (PC-3; PC-3, read-out: LC50) of the same molecule?
A: The CC50 was 10500 nM.
